Marks after values point to notes of the source that are not given here.
Experiments:
[1] = cited from earlier work; for covalent (hepatic) DNA adducts: rat, in vivo; for long-term carcinogenicity: rats
TGF-beta [2] = experiment: TGF-beta production by human VSMCs in culture; type: cell-based; conditions: cultured VSMCs
Procedure: The amount of TGF-beta present in medium conditioned on VSMCs in the presence and absence of aspirin was measured by ELISA.
The ED50 for TGF-beta production of the complex (Cu Aspirinate) was determined in cultured rat and human VSMCs.

TGF-beta [3] = experiment: TMX 40 mg/day for 10 days in TVD patients: plasma TGF-beta; type: in vivo, human
Procedure: Active plus acid-activatable latent (a+1) TGF-beta levels were assayed in platelet-poor plasma using seven different assay methods. There has been debate in the literature regarding the most appropriate way to measure (a+1) TGF-beta, so to avoid difficulties specific to any particular measurement method all the available methods which have been described in the literature were used. The seven methods are:
(A) A sandwich ELISA using BDA19 and BDA5 (R&D Systems) antibodies with no activation step required.
(B) The Quantikine TGF-beta1 ELISA kit (R&D Systems) using acid/urea as the activation buffer in accordance with the manufacturer's instructions
(C) The Quantikine TGF-beta1 ELISA kit (R&D Systems) using acid alone as the activation buffer
(D) The BioTrak TGF-beta1 ELISA kit (Amersham International) using acid/urea as the activation buffer
(E) The BioTrak TGF-beta1 ELISA kit (Amersham International) using acid alone as the activation buffer in accordance with the manufacturers instructions
(F) The TGF-beta1 ELISA kit (Genzyme Diagnostics) using acid/urea as the activation buffer in accordance with the manufacturer's instructions
(G) The TGF-beta1 ELISA kit Promega Corporation) using acid alone as the activation buffer in accordance with the manufacturer's instructions
Replicate aliquots of plasma taken from the same individuals at the same time were assayed by all seven methods.
The partitioning of TGF-beta between the lipoproteins and plasma proteins was analyzed by separating the lipoprotein fraction (d<[…]) from the plasma proteins by density ultracentrifugation as described hereinabove. TGF-beta levels were assayed in both fractions using the Quantikine ELISA kit, following release and activation of TGF-beta with acetic acid and urea in accordance with the manufacturer's instructions. None of the three TGF-beta ELISAs used here detected TGF-beta in the lipoprotein fraction without prior extraction/activation with acetic acid/urea.

[4] = Serum lipid and lipoprotein profile of apoE knockout mice; type: in vivo, mouse; conditions: apo(E)−/− mouse
Procedure: The effect of each treatment on the lipid profile of each group of mice was determined by measuring the cholesterol and triglyceride. Blood from a terminal bleed was collected in a polypropylene tube, allowed to clot at room temperature for 2 hours and then spun (1,000×g; 5 minutes). The serum supernatant was aliquoted and stored at −20° C. until assayed. Total cholesterol and total triglycerides were determined for each mouse using the cholesterol oxidase and glycerol kinase UV end-point enzymatic methods respectively (Sigma Diagnostics).

NFkB = NFkB translocation (p65 immunostaining) and kB-luciferase reporter activity in human SMCs; type: cell-based
Description: In cells which had been transfected with a reporter construct which has three consensus kB DNA elements fused to the luciferase gene, the amount of light which was produced when the cell lysate was exposed to luciferin and ATP was proportional to NFkB activity.

[5] = TMX 40 mg/day for 10 days in TVD patients: plasma lipids, Lp(a), PAI-1
Description: Patients with triple vessel disease (TVD) were defined as individuals having at least 50% stenosis of all three coronary arteries by angiography, which was confirmed by two independent observers. All had stable angina, with no myocardial infarction in the previous three months. Patients with unstable angina, poor left ventricular function, ventricular hypertrophy or diabetes were excluded.
Blood samples were taken and plasma prepared before and during the treatment period, and these samples were analyzed for TGF-beta, Lp(a), PAI-1 and lipoprotein profiles. Patients were asked to fast overnight prior to samples of blood being drawn between 9 am. and 10 a.m. the following morning. Blood samples were drawn by venepuncture of the antecubital vein with no tourniquet applied using a 21 gauge butterfly needle. Half the blood was allowed to clot for 2 hours at room temperature in polypropylene tubes. The clot was spun down (1,500×g; 15 minutes) and aliquots of the serum was stored at −100° C. The remaining blood was dispensed into Diatube H tubes (Diagnostica Stago) and cooled on ice for 15 minutes. Blood cells and platelets were spun down (6,000×g; 30 minutes) and the middle third of the supernatant was taken, carefully avoiding disturbing the pellet. This platelet-poor plasma was stored in aliquots at −100° C. until assayed.
Total plasma triglyceride, total plasma cholesterol, HDL-cholesterol, LDL-cholesterol and VLDL-cholesterol were routinely assayed in all patients.

apoE knockout mice = experiment: Lipid lesion development in aortic sinus of apoE knockout mice (Oil Red O); conditions: mouse aorta
Procedure: To determine the efficacy of combination therapy, and to provide evidence for synergism between aspirin and fish oil, 8-week-old female apoE knockout mice were fed aspirin or fish oil, or both, to assess the cardioprotective effects of modulating different components of the TGF-beta pathway.
Group A mice (n=10) were sacrificed at day 0. Group B mice (n=10) were fed normal chow. […] Group D mice (n=10) were fed chow containing 33 mg/kg/day fish oil (200 μg Pulse cod liver oil/g food, Seven Seas Ltd., which contains 0.9 g eicosapentaenoic acid (EPA), and 0.3 g docosahexaenoic acid (DHA)) and 3 mg/kg/day aspirin dissolved in water. Group E mice (n=10) were fed chow containing 33 mg/kg/day fish oil. Group F mice (n=10) were fed chow containing Zocor (simvastatin; Zocor tablets, Merck, Sharpe & Dohme) at 400 μg/kg/day (2 μg/g food).
Groups B-F were fed these regimens for 87 days. All mice were weighed daily for the first week and weekly thereafter. Food and water consumption over a 24 hour period were measured daily for the first 7 days and weekly thereafter.
After 87 days, mice in groups B-F were fasted overnight and then sacrificed. Serum, heart, lungs and aorta samples were collected at the time of sacrifice. The heart, lungs and aorta were removed from each mouse and rinsed in PBS, dabbed dry on tissue and embedded in Cryo-M-bed embedding medium (Bright Instruments, Huntington, U.K.) before snap freezing in liquid nitrogen. Frozen sections (4 μm thickness) of the aortic sinus region were prepared from the heart/lung/aorta blocks according to the sectioning strategy of Paigen et al. (Arteriosclerosis, 10, 316 (1990)). Sections on 5% gelatin-coated slides were stained for neutral lipid by the Oil Red O technique and counter-stained with fast green (Grainger et al., Nature Med., 1, 1067 (1995)).
The development of lipid-filled vascular lesions was determined by the quantitation of oil red O staining for neutral lipid deposited in the aortic sinus region. The area of lipid accumulation was measured using a calibrated microscope eye-piece, such that lipid droplets<50 μm^2 were ignored and contiguous regions of lipid staining>500 μm in area were classified as lesions.

GR = experiment: MMTV LTR-CAT reporter in stably transfected SMCs; type: cell-based
Description: Because ER. interacts with NFkB transcription factor complexes in a similar manner to that for GR, agents which modulate ER/NFkB interaction should modulate the inflammatory response without activating GR. To test this hypothesis, SMCs in DMEM+10% FCS were transfected with a vector comprising the MMTV LTR promoter coupled to the chloramphenicol acetyl transferase (CAT) gene and the neomycin resistance gene (neo). A stably transfected line was selected using geneticin. When these cells were treated with dexamethasone, expression of the CAT gene was elevated 3.7±0.7 fold. […] Thus, ER/NFkB modulators would be expected to circumvent the undesirable side-effect profile associated with direct transcriptional activation by GR.

[6] = rats; cited from earlier work
[7] = biological target: T1, recombinant extracellular domain of the type II TGF-beta receptor (R2X) (Homo sapiens, UniProt P37173); experiment: Binding of recombinant TGF-beta to R2X (ELISA); conditions: lipoprotein equivalent to 3 mM total cholesterol added; maximal value
T1 construct: the recombinant extracellular domain of the type II TGF-beta receptor (R2X)
T1 sequence (P37173 23-166 limits assumed): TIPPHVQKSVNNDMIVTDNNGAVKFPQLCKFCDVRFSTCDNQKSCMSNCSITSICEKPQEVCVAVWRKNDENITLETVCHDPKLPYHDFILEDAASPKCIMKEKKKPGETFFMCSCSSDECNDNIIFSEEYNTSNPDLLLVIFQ
Procedure: To determine whether the TGF-beta associated with lipoprotein particles was able to bind to the type II TGF-beta signaling receptor and exert biological activity in vitro, the binding of recombinant TGF-beta to R2X was measured in the absence and presence of increasing concentrations of lipoprotein purified from the plasma of an individual with <1 ng/ml TGF-beta in plasma (individual I, Table 1). If the lipoprotein-associated fraction of TGF-beta is unavailable for binding, lipoproteins prepared from an individual with a very low plasma concentration of TGF-beta would be expected to reduce the binding of recombinant active TGF-beta to its receptors. The half maximal (ka) binding of recombinant TGF-beta to the recombinant extracellular domain of the type II TGF-beta receptor was previously determined to be 17±3 ng/ml (R2X; Grainger et al., Nature, 270, 460 (1994); Grainger et al., Clin. Chim. Acta, 235, 11 (1995)).
To measure the binding of TGF-beta to its receptor, the recombinant extracellular domain of the type II TGF-beta receptor (R2X), was coated onto ELISA plates (1 μg/well, Maxisorp plates, Gibco BRL). Wells were washed 3 times quickly in TBS and blocked with TBS containing 3% bovine serum albumin (BSA, fatty-acid free; Sigma) for 30 minutes. […] The amount of bound TGF-beta was detected with antibody BDA5 (R&D Systems) as previously described by Grainger et al., Clin. Chim. […]

[8] = test system: mink lung epithelial (MvLu) cells; experiment: Inhibition of MvLu cell proliferation; type: cell-based
Description: It has previously been shown that TGF-beta inhibits the proliferation of mink lung epithelial (MvLu) cells in culture. […] J. Physiol., 265, C571 (1993). […] Addition of lipoprotein purified from the plasma of individual I caused a dose-dependent increase in the ID50 of TGF-beta.

[9] = biological target: T1, recombinant extracellular domain of the type II TGF-beta receptor (R2X); conditions: no lipoprotein; previously determined; cited from earlier work
[10] = TNF-alpha (20 ng/ml) and tamoxifen (5 μM) simultaneously

## CC/C(=C(/c1ccc(I)cc1)c1ccc(OCCN(C)C)cc1)c1ccccc1 [4-iodotamoxifen]
[1]
  covalent (hepatic) DNA adducts: absence of DNA adducts

## CC(=O)Oc1ccccc1C(=O)[O-].CC(=O)Oc1ccccc1C(=O)[O-].[Cu+2] [Cu aspirinate, copper II (acetyl salicylate)2]
TGF-beta [2]
  potency at stimulating TGF-beta relative to aspirin: almost two orders of magnitude more potent

## CC/C(=C(\c1ccccc1)c1ccc(OCCN(C)C)cc1)c1ccccc1 [TMX, trans-2-[4-(1,2-diphenyl-1-butenyl)phenoxy]-N,N-dimethylethylamine]
TGF-beta [3]; Day 10, BDA19/BDA5 sandwich ELISA
  Plasma (a + 1) TGF-β, Method (A): 7.7 ± 1.5 ng/mL
TGF-beta [3]; Day 10, BioTrak, acid alone
  Plasma (a + 1) TGF-β, Method (E): 2.3 ± 0.1 ng/mL
TGF-beta [3]; Day 10, BioTrak, acid/urea
  Plasma (a + 1) TGF-β, Method (D): 2.4 ± 0.1 ng/mL
TGF-beta [3]; Day 10, Genzyme, acid/urea
  Plasma (a + 1) TGF-β, Method (F): 5.2 ± 0.3 ng/mL
TGF-beta [3]; Day 10, Promega, acid alone
  Plasma (a + 1) TGF-β, Method (G): 0.2 ± 0.1 ng/mL
TGF-beta [3]; Day 10, Quantikine, acid alone
  Plasma (a + 1) TGF-β, Method (C): 0.62 ± 0.07 ng/mL
TGF-beta [3]; Day 10, Quantikine, acid/urea
  Plasma (a + 1) TGF-β, Method (B): 1.2 ± 0.2 ng/mL
TGF-beta [3]; Day 10 vs Day 0
  change in plasma (a + 1) TGF-β, Method (A): (+24%)
  change in plasma (a + 1) TGF-β, Method (B): (+71%)
  change in plasma (a + 1) TGF-β, Method (C): (+148%)
  change in plasma (a + 1) TGF-β, Method (D): (+20%)
  change in plasma (a + 1) TGF-β, Method (E): (+29%)
  change in plasma (a + 1) TGF-β, Method (F): (+59%)
  change in plasma (a + 1) TGF-β, Method (G): (+100%)
TGF-beta [3]; after 10 days of TMX therapy, Quantikine ELISA
  proportion of plasma TGF-beta that is lipoprotein-associated: 25±3%
TGF-beta [3]; by day 10
  median increase in (a+1) TGF-beta: 59%
[4]
  lowering of VLDL: seven fold
NFkB; Homo sapiens, read-out: inhibition of TNF-alpha-induced NFkB activity
  inhibition at 5 µM: 86 ± 12%
NFkB; [10]
  NFkB translocated to the nucleus: less than 10%
  stimulation of NFkB activity: less than 3 fold
NFkB; tamoxifen alone
  change in NFkB activity: no detectable change
[1]
  long-term carcinogenicity: liver carcinogenicity
[5]; Day 10
  HDL-cholesterol: 0.77 ± 0.04 mM
  LDL-cholesterol: 4.16 ± 0.25 mM
  Lipoprotein(a): 42.4 ± 9.5 mg/dL
  Plasma PAI-I antigen: 35.9 ± 5.4 ng/mL
  Total plasma triglycerides: 2.28 ± 0.35 mM
  VLDL-cholesterol: 0.84 ± 0.11 mM
[5]; Day 10, mean ± standard error, 15 patients
  Total plasma cholesterol: 5.95 ± 0.29 mM
[5]; after 10 days
  concentration of HDL-cholesterol, change: unchanged
  concentration of LDL-cholesterol, change: unchanged
  decrease in total plasma cholesterol below baseline: 6%
  reduction of cholesterol in the VLDL fraction below baseline: 18%
[5]; after 10 days, not statistically significant (p=0.22)
  lowering of total plasma triglyceride concentration: 18%
[5]; day 3 vs baseline
  decrease in plasma concentration of Lp(a): 27%
[5]; day 10 vs baseline
  reduction in Lp(a) concentration: 31%
apoE knockout mice
  % Lesion Suppression: 99* %

## CN(C)CCOc1ccc(/C(=C(/CCCl)c2ccccc2)c2ccccc2)cc1 [Toremifene, toremifene]
[1]
  covalent (hepatic) DNA adducts: very low level
  long-term carcinogenicity: non-carcinogenic

## C[C@@H]1C[C@H]2[C@@H]3CCC4=CC(=O)C=C[C@]4(C)[C@@]3(F)[C@@H](O)C[C@]2(C)[C@@]1(O)C(=O)CO [dexamethasone]
GR
  elevation of expression of the CAT gene: 3.7±0.7 fold

## CC/C(=C(\c1ccc(I)cc1)c1ccc(OCCN2CCCC2)cc1)c1ccccc1 [idoxifene, (E)-1-[4-[2-(N-pyrrolidino)ethoxy]phenyl]-1-(4-iodophenyl)-2-phenyl-1-butene]
[1]
  covalent (hepatic) DNA adducts: absence of DNA adducts
[6]
  residual estrogenic activity compared with TMX: reduced residual estrogenic activity

## TNF-alpha
NFkB; 20 ng/ml, 6 hours at 37° C.
  NFkB translocated to the nucleus: > 80%
NFkB; 20 ng/ml, 6 hours, luciferase reporter
  increase in NFkB activity: 19 fold

## recombinant TGF-beta: recombinant active TGF-beta1 (R&D Systems)
[7]
  apparent ka for TGF-beta binding to R2X: 42 ± 6 ng/mL
[8]; 3 mM total cholesterol lipoprotein added, maximal
  MvLu cell ID50: 0.52 ± 0.08 ng/mL
[8]; no lipoprotein, n=6
  MvLu cell ID50: 0.12 ± 0.04 ng/mL
[9]
  half maximal (ka) binding of recombinant TGF-beta to R2X: 17 ± 3 ng/mL
